Source: patent publication US11040056B2, “Benzimidazoles that enhance the activity of oligonucleotides” (The University of North Carolina at Chapel Hill, priority 2018, dated 2021)
d = 2'-deoxy (DNA); m = 2'-O-methyl

Assays:
HeLaLuc705 cells = assay: SSO-mediated luciferase induction assay; format: cell-based; conditions: for EC50: luciferase induction by SSO623
Experimental: FIG. 1B-1E. Effects with SSOs. FIG. 1B Structure of UNC2383. […] The cells were then rinsed and incubation continued for an additional 4 h in DMEM+10% FBS. Cells were rinsed twice in PBS and luciferase activity (RLU) and cell protein determined. The larger round symbol indicates the MM oligonucleotide. Means+/−SE. N=3. […] The cells were further incubated and then luciferase and protein determined. The total time of incubation in each case was 6 h. […] Means+/−SE. N=3.
(§1) FIG. 3. Effect and Cytotoxicity of Analogs. The effect of selected UNC2383 analogs on luciferase induction by SSO623 was measured as described in Methods and in the legend of FIG. 1B-1E. Cytotoxicity was measured using the Alamar Blue method as in FIG. 1E. MM10 is the effect of 10 uM compound in the presence of a mismatched oligonucleotide. Means and SE. N=3.
HeLaLuc705 cells are stably transfected with a firefly luciferase reporter whose coding sequence is interrupted by an abnormal intron. […] NIH-3T3-MDR cells are stably transfected with a human MDR1 cDNA coding for the P-glycoprotein (Pgp). We have described the maintenance and use of these cell lines elsewhere. (18, 20)
(§2) SSO-mediated luciferase induction assays were conducted as previously described. (18) In short, HeLaLuc705 cells in 24 well culture plates were preincubated with SSO623 followed by brief treatment with the small molecule; at intervals thereafter, luciferase activity and protein content were determined. […] (30)

[1] = tested on: CFTR channel activity in human bronchial epithelial cells (HBEC) from a 3849+10 kbC-T homozygous patient; assay: Ussing chamber analysis of CFTR function in 3849+10 kbC-T HBEC; format: cell-based; conditions: SSO A 1 uM overnight, OEC 4 uM 2 hs luminal or serosal, 72 h, approved drugs in parallel
Description: FIG. 11. CFTR activity restored to CF splicing mutation 3849+10 kbC-T using SSOs. SSOs were delivered in vitro by electroporation (˜100% efficiency), CF primary cells were differentiated on permeable supports and tested. Panel A. PCR analysis. The lower band is the correctly spliced CFTR. Panel B. Functional correction by Ussing chamber analysis.
FIG. 12. OEC Mediated Delivery of a SSO in 3849+10 kbC-T HBEC. Well-differentiated human bronchial epithelial cells (HBEC) derived from a 3849+10 kbC-T homozygous patient were incubated with corrective (LNA) SSO A from FIG. 1 (1 uM, overnight). Cells were then incubated with OEC UNC2383 in the luminal or serosal bath (4 uM, 2 hs). Both the SSO and OEC were added in cell growing medium. Seventy two hour later, HBEC were analyzed in Ussing chamber for CFTR function. Orkambi® was tested in parallel inserts.
Results: In vitro studies were performed in well-differentiated HBEC cells derived from a homozygous 3849+10 kbC→T CF patient (CF HBEC) treated with one dose of a specific SSO (1 uM, 12 hs) followed by one dose of OEC (apical or basolateral delivery, 2-4 uM, 2-3 hs). A significant increase of forskolin-stimulated CFTR activity in Ussing chamber analyses was observed 24-96 hs after SSO+OEC treatment compared to SSO alone treatment or vehicle. OEC was efficacious delivered apically as well as basolaterally. Transepithelial resistance and microscopy tests were implemented to monitor cytotoxicity, which was negligible for both SSO and OEC (FIG. 12). In vivo studies were performed in a transgenic mouse model that has a SSO-inducible EGFP reporter.
SSOs (100 nM) were introduced in airway epithelial cells derived from a 3849+10 kbC-T homozygous CF patient in suspension by electroporation using the Neon system, program A4. Cells were differentiated for 2 weeks in culture on human collagen-coated permeable supports (Millipore) before being tested in Ussing chambers following methods described in Kreda et al. […] “Characterization of Wild-Type and ΔF508 Cystic Fibrosis Transmembrane Regulator in Human Respiratory Epithelia” Mol. Biol. Cell 16(5):2154-2167 (100 uM Amiloride, Amil; 10 uM Forskolin, Fsk; 20 uM CFTR inhibitor 172). After Ussing chamber analysis, cells were lysed and assayed for RT-PCR as described in Wang et al 2017 (FIG. 11).
(SEQ ID NO:2), C (5′+G*mA*mG*mU*+C*mU*mU**mU*mA*+C*mU*mC*mA*mC*mC*+A*mU*mU*mU) (SEQ ID NO:3) (Locked Nucleic Acid (LNA)=+, PS=*, 2′OMe=m). In SSO sequences A, B, and C the underlined bases indicate oligo bases that match up to the bases in the mutated splice site in the 3849+10 kb C-T CFTR splicing mutation. MM623 or SSO623 sequences are described herein. […]

[2] = Alamar Blue cytotoxicity assay; format: cell-based; conditions: human, HeLa Luc705 cells; Alamar Blue cytotoxicity; read-out: TC50
Experimental: (§3) FIG. 1B-1E. Effects with SSOs. FIG. 1B Structure of UNC2383. FIG. 1C Compound 2383 enhances SSO effects. Cells were incubated in 24-well plates with 100 nM SSO623 or its mismatched control (MM) for 16 h in DMEM+10% FBS, rinsed and then treated with various concentrations of 2383 for 2 h. The cells were then rinsed and incubation continued for an additional 4 h in DMEM+10% FBS. Cells were rinsed twice in PBS and luciferase activity (RLU) and cell protein determined. The larger round symbol indicates the MM oligonucleotide. Means+/−SE. N=3. FIG. 1D Kinetics of 2383 action. Cells were preloaded with 100 nM SSO623 and then exposed to 2383 for various periods after which the compound was removed. The cells were further incubated and then luciferase and protein determined. The total time of incubation in each case was 6 h. FIG. 1E Cytotoxicity of 2383. HeLa Luc705 or NIH-3T3-MDR cells were exposed to 2383 as in (FIG. 1C) then incubated for 24 h in DMEM plus 10% FBS and tested using the Alamar Blue cytotoxicity assay. Means+/−SE. N=3.
as §1
(§4) SSO-mediated luciferase induction assays were conducted as previously described. (18) In short, HeLaLuc705 cells in 24 well culture plates were preincubated with SSO623 followed by brief treatment with the small molecule; at intervals thereafter, luciferase activity and protein content were determined. ASO mediated inhibition of MDR1 gene expression utilized an Alexa 488 labeled anti-P-glycoprotein antibody and flow cytometry to measure Pgp expression as described. (20) The anti-MDR1 sequence is 5′-CCATCccgacctcgcGCTCC-3′(SEQ ID NO: 5) (all phosphorothiopate with 2-O-Me residues in capitals). Cytotoxicity of 2383 was monitored using the Alamar Blue assay. (30)

HeLa Luc705 cells = assay: Alamar Blue cytotoxicity assay; format: cell-based; conditions: ratio of cytotoxicity TC50 to luciferase induction EC50
Experimental: as §3, §1, §4

[3] = tested on: lysosomes of HeLa Luc 705 cells; assay: Lysotracker Red accumulation assay; format: cell-based; conditions: 10 μM
Experimental: FIG. 9A-9D. Effects on lysosomes. FIG. 9A: Lysotracker uptake. Accumulation of Lysotracker Red in HeLa Luc 705 cells was measured after a 2 h exposure of cells to the indicated concentrations of various analogs. The lysosomotropic compound chloroquine was included as a positive control. Means of triplicate determinations are shown. The color-coded numbers refer to the fold increase in luciferase induction attained by the concentration of analog associated with the adjacent symbol on the graph. The numbers are taken from the data of FIG. 1C for UNC2383 and FIG. 4 for UNC4267, UNC4258, and UNC4428. FIG. 9B: LT50 vs TC50. […] Nonlinear regression was calculated using Prism software. The R^2 value for the plot is 0.91. FIG. 9C: 2383 vs chloroquine; luciferase induction. HeLa Luc705 cells were exposed to SSO623 and then treated with various concentrations of UNC2383 or chloroquine for 2 h and then tested for luciferase induction following the methods described in FIG. 1B-FIG. 1E. […]
The integrity of lysosomes was evaluated using the fluorescent probe Lysotracker Red (Thermo Fisher). […] Cells were thoroughly rinsed in PBS, lysed in 0.2% TX 100, and centrifuged briefly at 4000 rpm, and 100 uL of the supernate was distributed to black 96 well plates for analysis of fluorescence using a FLUOstar Omega 96 well microplate reader.

[4] = tested on: P-glycoprotein (Pgp) expression in NIH-3T3-MDR cells; assay: ASO mediated inhibition of MDR1 gene expression (Pgp by flow cytometry); format: cell-based, mouse; conditions: 100 nM anti-MDR1 ASO 16 h; 10 μM UNC2383 2 h where used; 48 h
Experimental: FIG. 4. Effects with ASOs. Reduction of Pgp expression. NIH 3T3-MDR cells were incubated with 100 nM anti-MDR1 ASO or a mismatched (MM) control for 16 h in DMEM+1% FBS. Cells were rinsed and then treated with 10 μM UNC2383 for 2 h. The compound was removed, and the cells further incubated for 48 h. Expression of Pgp on the cell surface was determined by treating cells with Alexa 488 labeled anti-Pgp monoclonal antibody and binding quantitated by flow cytometry (PE(A)=units of fluorescence intensity). Treatment with ASO complexed with Lipofectamine 2000 (L2K) was a positive control. Y axis, cell counts; X axis, Alexa 488 fluorescence. […] Means±SE, N=3.
We also tested UNC2383 for its ability to affect ASOs rather than SSOs. The ASO was designed to inhibit expression of the MDR1 gene and its product the P-glycoprotein multidrug transporter. […] Cell surface expression of P-glycoprotein was monitored using an Alexa 488 labeled anti-Pgp monoclonal antibody and flow cytometry. […]
as §2, with “Cytotoxicity of 2383 was monitored using the Alamar Blue assay. […]” for “(30)”

[5] = mouse, in vivo
Experimental: All animal procedures were conducted in compliance with guidelines of the UNC Laboratory Animal Medicine Department and with federal guidelines. […] (20, 32) EGFP654 mice were administered 35 mg/kg of SSO623 or mismatched oligonucleotide in buffer by intraperitoneal injection on two consecutive days. One day later, mice received either 5 mg/kg of UNC2383 in a 1:1 DMSO/PEG400 solution or only the diluent, via intraperitoneal injection. […] After 24 h, the second cohort was euthanized and tissue and cardiac blood samples were obtained. […] (31) Blood samples were analyzed by the UNC Animal Clinical Chemistry Core facility.

With `CCN(CC)CCCC(C)Nc1ccnc2cc(Cl)ccc12` (centres unmarked) [Chloroquine, chloroquine, reference compound] the “SSO-mediated luciferase induction, comparison with chloroquine” value (HeLaLuc705 cells; FIG. 9C, 2 h, chloroquine also 16 h) was “little effect”.

For `CC(C)(C)c1cc(C(C)(C)C)c(NC(=O)c2c[nH]c3ccccc3c2=O)cc1O` [Ivactafor®/Kalydeco®, reference compound], the “CFTR channel activity / functional correction” value [1] was “minimal effect” and the “CFTR channel activity / functional correction” value ([1]; listed as Kalydeco®) was “no effect”.

`O=C(Nc1nc2ccccc2n1CCN1CCCC1)c1cc2cc(Br)ccc2o1` [UNC4251] showed an EC50 (HeLaLuc705 cells) of 2 µM, a CC50 at 2 h [2] of 7 µM and a TC50/EC50 (HeLa Luc705 cells) of 3.5.

Compound `COc1ccc2oc(C(=O)Nc3nc4ccccc4n3CCN3CCCC3)cc2c1` [UNC4253] has an EC50 (HeLaLuc705 cells) of 11 µM, a CC50 at 2 h [2] of 48 µM and a TC50/EC50 (HeLa Luc705 cells) of 4.4.

`O=C(Nc1nc2cc(Cl)ccc2n1CCN1CCCC1)c1cc2cc(Cl)ccc2o1` [UNC4425] showed an EC50 (HeLaLuc705 cells) of 6 µM, a CC50 at 2 h [2] of 12.5 µM and a TC50/EC50 (HeLa Luc705 cells) of 2.1.

With `Cc1ccc2c(c1)nc(NC(=O)c1cc3cc(Cl)ccc3o1)n2CCN1CCCC1` [UNC4426] the EC50 (HeLaLuc705 cells) was 3.5 µM, the CC50 at 2 h [2] was 13 µM and the TC50/EC50 (HeLa Luc705 cells) was 3.7.

For `O=C(Nc1nc2cc(Cl)c(Cl)cc2n1CCN1CCCC1)c1cc2cc(Cl)ccc2o1` [UNC4428], the “enhancement of SSO actions” value (HeLaLuc705 cells; 10 μM) was “quite strongly enhanced”, the EC50 (HeLaLuc705 cells) was 10 µM and the CC50 at 2 h [2] was 50 µM. The TC50/EC50 (HeLa Luc705 cells) was 5 and the “effect on lysotracker accumulation” value [3] was “little effect”.

With “ASO: anti-MDR1 antisense oligonucleotide 5′-CCATCccgacctcgcGCTCC-3′ (SEQ ID NO: 5) (antisense CCATCCCGACCTCGCGCTCC; sugars from the 5' end m5 d10 m5, all phosphorothioate, methylation of C and T or U not given here) [reference compound]” the “Pgp expression on the cell surface” value [4] was “virtually no effect”.

With “SSO623: 2′-O Me phosphorothioate splice switching oligonucleotide 5′-GTTATTCTTTAGAATGGTGC-3′ (SEQ ID NO: 4) (all 2'-O-methyl, all phosphorothioate, T or U not given here)” the ALT [5] was 51 +/− 8 U/L, the AST [5] was 65 +/− 23 U/L and the BUN [5] was 23 ± 2 mg/dL. For the same compound, the Hb [5] was 13.8 ± 0.8 g/dL and the Platelets [5] was 824 +/− 266 × 10^3/ul.
